Experimental data taken from PMC9157788, “Design, Synthesis, and Apoptosis-Promoting Effect Evaluation of Rhopaladins’ Analog 4-Arylidene-5-Oxopyrrolidine Derivatives” (Frontiers in Chemistry, 2022).

Assays:
[1] = system: HepG2 cells; test: Annexin V-FITC/PI flow cytometry apoptosis assay, HepG2; format: cell-based, human; details: 48 h; for total apoptosis rate: DMSO control 7.73 ± 2.18%
Description: The effect of RPDPRH on apoptosis was performed using the Annexin V-FITC/PI Apoptosis kit (MultiSciences, China), following the manufacturer’s protocol. The cells were digested, dispersed, and plated into six-well plates with 2 × 10^4 cells/well and treated with RPDPRH (0, 6.25, 12.5, and 25 μM) at various concentrations for 48 h. Upon completion of the treatment, cells were harvested, washed with cool phosphate buffered solution (PBS, Gibco, United States) (0.01 M, pH=7.4), and re-suspended in a 500 μl binding buffer. Annexin V-FITC (5 μl) and PI (10 μl) were added into the cell suspension, and then, the suspension was incubated at room temperature away from light for 5 min. Cells were analyzed by using a flow cytometer (Agilent NovoCyte, China) immediately, and the results of the apoptosis were analyzed by FlowJo software.

[2] = system: HepG2 cells; test: MTT cell viability assay, HepG2; format: cell-based; details: Homo sapiens, 48 h, read-out: Half inhibitory concentration (IC50), HepG2
Description: (§1) HepG2 (human epidermoid hepatocellular carcinoma cell), 7402 (human epidermoid hepatocellular carcinoma cell), C-33A (human epidermoid cervical carcinoma cell), and HeLa (human epidermoid cervical adenocarcinoma cell) were incubated in Dulbecco’s modified Eagle’s medium (DMEM), which was purchased from Gibco (Grand Island, NY, United States). SiHa cells (human epidermoid cervical squamous cell carcinoma) were incubated in minimum essential medium (MEM, also from Gibco). CaSki (human epidermoid cervical carcinoma cell) and LO2 (human normal liver cell) were incubated in minimum essential medium (MEM, also from Gibco). All cells were maintained at 37°C in a humidified incubator with 5% carbon dioxide, and the media contained 10% fetal bovine serum (FBS, Corning, United States) and 1% penicillin–streptomycin antibiotic solution (Corning, United States). SiHa and CaSki were bought from the China Center for Type Culture Collection (CCTCC). The other five types of cancer cell lines were obtained from the Experiment Center of Medicine, Sinopharm Dongfeng Hospital, Hubei University of Medicine. The compounds were dissolved in dimethyl sulfoxide (DMSO, MP Biomedicals, United States), and cisplatin was purchased from Aladdin, Shanghai, China. The control (0 μM) group was treated with DMSO only in the same conditions, and the DMSO content in the medium was less than 0.1%.
(§2) Cell viability was measured by a 3-(4,5-dimethylthiazol-2-yl)-2,5-diphenyltetrazolium bromide (MTT, MultiSciences, China) assay. The specific experimental steps referred to our previous research ([Zhu et al., 2020]). For each cell line, cells were digested and seeded in 96-well plates at a density of 1 × 10^3 cells/well. […] Then, the formed formazan crystals were dissolved in DMSO, and the plates were estimated in a […] microplate reader (BioTek Inc., Bio-Tek MQX200) at a wavelength of 490 nm. Optical density (OD) values were obtained, and the inhibition rate and IC50 of each compound on different cells were calculated by GraphPad Prism 8.0.1 software. […]

[3] = system: Bcl-2; test: Western blot, Bcl-2 expression in 7402 cells; format: cell-based, human; details: 7402, 25 μM, 48 h, vs DMSO control, p < 0.01
Description: The experimental steps of the Western blotting assay referred to Lin’s study ([Lin et al., 2020]). After treatment with different concentrations of RPDPRH (0, 6.25, 12.5, and 25 μM) for 48 h, hepatocarcinoma cells were lysed with an ice-cold RIPA protein lysis buffer (Beyotime, China). Total cell lysates were prepared with RIPA lysis buffer containing phosphatase inhibitors (Roche, China) and protease inhibitors (MedChemExpress, United States). Total cell lysates were centrifuged at 10,000 g for 10 min at 4°C to obtain the supernatant. The protein concentration was detected according to the BCA Protein Assay Kit (Beyotime, China). Then, 5× SDS loading buffer (Beyotime, China) was added to the supernatant and boiled at 100°C for 10 min. The obtained protein samples were stored at −80°C.
The protein samples (20 μg) were resolved on 4% concentration glue and 12% separating glue and prepared according to the SDS-PAGE Gel Quick Preparation Kit procedure (Beyotime, China). After electrophoresis at 80 V for 1.5–2 h, the proteins were wet-transferred onto a polyvinylidene difluoride membrane (PVDF, Millipore) at 300 mA for 1–1.5 h. […]

[4] = system: 7402 cells; test: MTT cell viability assay, 7402; format: cell-based; details: Homo sapiens, 48 h, read-out: Half inhibitory concentration (IC50), 7402
Description: as §1, §2

[5] = system: C-33A cells; test: MTT cell viability assay, C-33A; format: cell-based; details: Homo sapiens, 48 h, read-out: Half inhibitory concentration (IC50), C-33A
Description: as §1, §2

[6] = system: 7402 cells; test: Wound healing assay, 7402; format: cell-based, human; details: 48 h
Description: The experimental procedures were performed according to conventional methods ([Kovaříková et al., 2014]). Hepatocarcinoma cells at the logarithmic growth stage were taken and inoculated into six-well plates with 2 × 10^4 cells/well. When the cell density is about 80%, the cell wound was scratched with pipette tips. Cells were then washed with PBS and added to the cell culture broth containing 1% serum with varying concentrations of RPDPRH (0 μM, 6.25, 12.5, and 25 μM) for 48 h. Pictures were taken at 0 and 48 h under a microscope (100×). Wound healing rate (%) = [(0 h scratch distance−48 h scratch distance)/0 h scratch distance] × 100%.

For O=C1/C(=C/c2ccc(Cl)cc2)CC(/C=C/c2ccc(Cl)cc2)(C(=O)NC2CCCCC2)N1c1ccc(F)cc1 (stereo not drawn) [RPDPRH, (2E, 4E)-4-(4-chlorobenzylidene)-2-(4-chlorostyryl)-N-cyclohexyl-1-(4-fluorophenyl)-5-oxopyrrolidine-2-carboxamide], the “early apoptotic cell (LR) rate” value ([1]; HepG2, 6.25 μM) was 5.53%, the “late apoptotic (UR) rate” value ([1]; HepG2, 6.25 μM) was 5.07% and the total apoptosis rate ([1]; HepG2, 6.25 μM) was 10.6 ± 1.49%. For the same compound, the “early apoptotic cell (LR) rate” value ([1]; HepG2, 12.5 μM) was 14.90%, the “late apoptotic (UR) rate” value ([1]; HepG2, 12.5 μM) was 21.00% and the total apoptosis rate ([1]; HepG2, 12.5 μM) was 35.90 ± 2.51%. The “early apoptotic cell (LR) rate” value ([1]; HepG2, 25 μM) was 19.80%, the “late apoptotic (UR) rate” value ([1]; HepG2, 25 μM) was 32.30% and the total apoptosis rate ([1]; HepG2, 25 μM) was 52.10 ± 4.49%. For the same compound, the IC50 [2] was 12.4 µM, the “expression of anti-apoptotic protein Bcl-2” value [3] was “decrease” and the IC50 [4] was 22.4 µM. For the same compound, the IC50 [5] was 4.66 µM, the wound healing rate ([6]; 7402, 25 μM, vs DMSO control, p < 0.01) was “reduced significantly” and the wound healing rate ([6]; 7402, 6.25, 12.5 and 25 μM) was “significantly reduced”.
